Measured values reported in patent US20100197782A1, “THERAPEUTIC AGENT FOR VIRUS-ASSOCIATED MALIGNANCY” (priority 2006, published 2010).

Columns and labels:
[1] = tested on: HTLV-I-infected T-lymph cell lines (MT-2, MT-4, HUT-102, ED-40515 (−)); test: Measurement of proliferation potency of HTLV-I-infected T-lymph cell lines (WST-8 cell survival rate); format: cell-based; conditions: for effect on the growth of HTLV-I-infected T-lymph cell lines: 10, 5, 2.5 μM, FIG. 3; for effect on the growth of HTLV-I-infected T-lymph cell lines / growth of HTLV-I-infected T-lymph cell lines (cell survival rate): WST-8; for growth of HTLV-I-infected T-lymph cell lines (cell survival rate): 10, 5, 2.5, 1.25, 0.625 μM, FIG. 1
Protocol: (§1) After adding “WST-8” (manufactured by Wako Pure Chemical Industries, Ltd.) in an amount of 5 μL/well as a coloring substrate, cells were cultured for four hours at 37° C.
(§2) Cell survival rate (%)=[1−(A−B)/A]×100 [Formula 1]
(§3) A: Absorbance without agent treatment
(§4) A: Absorbance with agent treatment

[2] = tested on: EBV-infected B cell lines (Raji, Daudi, B95-8/BJAB, B95-8/Ramos, LCL-Ka, LCL-Ku); test: Measurement of proliferation potency of EBV-infected B cell lines (WST-8 cell survival rate); format: cell-based; conditions: 24 hours; for growth of EBV-infected BL cell lines (cell survival rate): 10, 5, 2.5, 1.25, 0.625 μM, WST-8, FIG. 2
Protocol: as §1, §2, §3, §4

[3] = tested on: PBMC (leukemia cells) of adult T-cell-leukemia (ATL) patients; test: Measurement of proliferation potency of peripheral blood mononuclear cells of ATL patients (WST-8); format: cell-based, human; conditions: 24 hours; for growth of leukemia cells in ATL patients (PBMC survival rate): five ATL patients, fucoxanthin 0.625-10 μM, fucoxanthinol 0.625-2.5 μM, FIG. 4
[4] = tested on: HTLV-I-infected cell lines (MT-2, MT-4, HUT-102, ED-40515 (−)); test: Measurement of apoptosis of HTLV-I-infected cell lines (annexin V, flow cytometry); format: cell-based
Protocol: After 24 hours, the cells were collected and dyed with annexin V to measure the rate (%) of apoptosis-positive cells using a flow sight meter.

[5] = tested on: HTLV-I-infected cell lines (MT-2, MT-4, HUT-102, ED-40515 (−)); test: Measurement of cell-cycle of HTLV-I-infected cell lines (propidium iodide, flow cytometry); format: cell-based; conditions: 5 μM, 24 hours; FIG. 5
Protocol: 1×10^6 cells of HTLV-I-infected cell lines (MT-2, MT-4, HUT-102, ED-40515 (−)) were scattered over a cell culture plate, and 5 μM of fucoxanthin was added, followed by incubation at 37° C. for 24 hours. After 24 hours, the cells were collected and dyed with propidium iodide to measure the DNA content using a flow sight meter. The cell cycle of each cell was judged by calculating the distribution of the cell group of each cell cycle from the result of the DNA content.

PBMC of a healthy person = test: Measurement of proliferation potency of peripheral blood mononuclear cells of a healthy person (WST-8); conditions: for action on normal cells: normal cells versus HTLV-1-infected cells and ATL cells
Protocol: First, the peripheral blood mononuclear cells (PBMC) were separated by the Ficoll centrifugal specific gravity method. The cells were diluted with an RPMI 1640 culture medium containing 10% fetal bovine serum to 2×10^6 cells/mL and spread over a 96-well plate in an amount of 1×10^5 cells/well.
Next, 50 μL/well of fucoxanthin and fucoxanthinol were added to make final concentrations of 10, 5, 2.5, 1.25, and 0.625 μM (fucoxanthin) or 2.5, 1.25 and 0.625 μM (fucoxanthinol), followed by incubation at 37° C. for 24 hours. After adding WST-8 in an amount of 5 μL/well, the cells were cultured for four hours at 37° C. After culturing, absorbance at a wavelength of 450 nm was measured by a microplate reader to determine the survival rate of the cells using the above formula.

[6] = HTLV-1-infected cells and ATL cells

## CC1=C(/C=C/C(C)=C/C=C/C(C)=C/C=C/C=C(C)/C=C/C=C(C)/C=C/C2=C(C)C(=O)[C@@H](O)CC2(C)C)C(C)(C)C[C@H](O)C1=O [astaxanthin, reference compound]
[1]; 24 hours
  effect on the growth of HTLV-I-infected T-lymph cell lines: only a slight effect

## CC(=O)O[C@H]1CC(C)(C)C(=C=C/C(C)=C/C=C/C(C)=C/C=C/C=C(C)/C=C/C=C(\C)C(=O)C[C@@]23O[C@]2(C)C[C@@H](O)CC3(C)C)[C@](C)(O)C1 [fucoxanthin]
[2]
  growth of EBV-infected BL cell lines (cell survival rate): concentration-dependently suppressed the growth
[3]
  growth of leukemia cells in ATL patients (PBMC survival rate): concentration-dependently suppressed the growth
[4]; [6]
  concentration causing apoptosis compared with β-carotene or astaxanthin: significantly lower than the corresponding concentration of β-carotene or astaxanthin
[4]; MT-2, MT-4, HUT-102, ED-40515 (−), 24 hours, FIG. 6
  apoptosis of HTLV-I-infected cell lines (annexin V positive cells): induces apoptosis in all HTLV-I infected cell lines
[4]; MT-2, 10, 5, 2.5 μM, 24 hours, FIG. 7
  concentration dependence of apoptosis of MT-2: concentration dependent
[5]
  effect on the cell cycle of HTLV-I-infected cell lines: suspends the cell cycle of all HTLV-I-infected cell lines at the G1 phase
[1]; 24 hours
  growth of HTLV-I-infected T-lymph cell lines (cell survival rate): concentration-dependently suppressed the growth
PBMC of a healthy person
  action on normal cells: substantially do not act on normal cells

## C\C(C=C=C1C(C)(C)C[C@H](O)C[C@@]1(C)O)=C/C=C/C(C)=C/C=C/C=C(C)/C=C/C=C(\C)C(=O)C[C@@]12O[C@]1(C)C[C@@H](O)CC2(C)C [fucoxanthinol]
[2]
  growth of EBV-infected BL cell lines (cell survival rate): concentration-dependently suppressed the growth
[2]; EBV-infected BL cell lines
  capability to inhibit growth compared with fucoxanthin: significantly higher than that of fucoxanthin
[3]; PBMC of ATL patients
  effect on growth potency compared with fucoxanthin: higher than that of fucoxanthin
[3]
  growth of leukemia cells in ATL patients (PBMC survival rate): concentration-dependently suppressed the growth
[4]; [6]
  concentration causing apoptosis: one micromole or less
  concentration causing apoptosis compared with β-carotene or astaxanthin: significantly lower than the corresponding concentration of β-carotene or astaxanthin
[4]; MT-2, 24 hours
  apoptosis-inducing effect compared with fucoxanthin: stronger than that of fucoxanthin
[4]; MT-2, 10, 5, 2.5, 1.25, 0.625 μM, 24 hours, FIG. 8
  apoptosis of MT-2 (annexin V positive cells): induces apoptosis in MT-2
[1]; 24 hours
  growth of HTLV-I-infected T-lymph cell lines (cell survival rate): concentration-dependently suppressed the growth
[1]; HTLV-1-infected cells and ATL cells, at a concentration of one micromole or less
  survival rate of the cells: almost zero
[1]; HTLV-I-infected T-lymph cell lines, 24 hours
  capability to inhibit growth compared with fucoxanthin: significantly higher than that of fucoxanthin
PBMC of a healthy person; fucoxanthin 0.625-10 μM, fucoxanthinol 0.625-2.5 μM, 24 hours, FIG. 4
  toxicity against the PBMC of the healthy person: no toxicity
PBMC of a healthy person
  action on normal cells: substantially do not act on normal cells

## CC1=C(/C=C/C(C)=C/C=C/C(C)=C/C=C/C=C(C)/C=C/C=C(C)/C=C/C2=C(C)CCCC2(C)C)C(C)(C)CCC1 [β-carotene, reference compound]
[1]; 24 hours
  effect on the growth of HTLV-I-infected T-lymph cell lines: only a slight effect
